What was measured:
[1] = system: patients with PFIC; test: PEDFIC 2 open-label extension trial, interim analysis: safety (TEAEs); type: in vivo, human
Procedure: Study Design • This phase 3 study included a screening period (for newly enrolled patients [i.e., cohort 2] only) and a 72-week treatment period (FIG. 9) in which all patients received oral, once-daily odevixibat 120 μg/kg. • Patients returned to the clinic 4 and 12 weeks after the first dose of odevixibat and then approximately every 10 to 12 weeks thereafter. • Following the 72-week treatment period, patients either enrolled in an optional extension for continued treatment or returned for a follow-up visit 4 weeks after ending study drug. Outcomes, Assessments, and Statistical Analysis • The primary efficacy outcomes were to assess the effects of odevixibat on sBAs and pruritus, including mean changes and proportion of patients meeting response criteria. • sBA responders were defined as patients who achieved a normalization of sBAs or reduction of ≥70%. • Pruritus responders were defined as patients who achieved a ≥1-point drop on the pruritus assessment. • Secondary outcomes included characterizing the long-term safety and tolerability of odevixibat, as well as the effects of odevixibat on growth, biliary diversion and/or liver transplantation, and markers of cholestasis and liver disease. • For the P1O and PIP groups, there were 2 baselines (PEDFIC 1 baseline and PEDFIC 2 baseline); for those in cohort 2, baseline refers to the value prior to initiation of odevixibat in PEDFIC 2. • This interim analysis focuses on data collected after 24 weeks of treatment in PEDFIC 2. • T tests were used to calculate P values for primary outcomes in the P1O group only; other outcomes were summarized descriptively.

[2] = system: children with PFIC1 or PFIC2; test: PEDFIC 1: quality of life (PedsQL and PedsQL Family Impact Module); type: in vivo, human; conditions: PEDFIC 1, all doses
Procedure: Study design and eligibility was as follows. In PEDFIC 1, patients were randomized 1:1:1 to receive oral, once-daily placebo, odevixibat 40 μg/kg/day, or odevixibat 120 μg/kg/day for 24 weeks; patients who completed 24 weeks of treatment could enroll in an open-label extension. Patients between the ages of 6 months and 18 years with a diagnosis of PFIC1 or PFIC2 were eligible for the study if they had elevated serum bile acid levels (defined as ≥100 μmol/L averaged from 2 samples taken prior to randomization, ≥7 days apart) and significant pruritus as reported by caregivers (average score ≥2 on a scale of 0-4 in the 2 weeks prior to randomization using an observer-reported outcome instrument).
A change from baseline to week 24 for the Pediatric QoL Inventory (PedsQL) questionnaire was assessed as an exploratory endpoint. Caregivers of patients ≥2 years old completed the PedsQL questionnaire, which assessed patient functioning in physical, emotional, social, and school domains; the output is a score between 0 and 100, where higher scores indicate better functioning and a higher change from baseline indicates an improvement in QoL, In addition, caregivers completed the PedsQL Family Impact Module, which assesses physical, emotional, social, and cognitive functioning as well as communication, worry, daily activities, and family relationship domains, also on a scale of 0 to 100. Total scores at baseline and at week 24 for all treatment groups as well as mean changes in scores from baseline to week 24 are presented for both odevixibat doses combined vs placebo; these are summarized descriptively.

For CCCCC1(CCCC)CN(c2ccccc2)c2cc(SC)c(OCC(=O)N[C@@H](C(=O)N[C@@H](CC)C(=O)O)c3ccc(O)cc3)cc2S(=O)(=O)N1 [Odevixibat, 1,1-dioxo-3,3-dibutyl-5-phenyl-7-methylthio-8-(N-{(R)-α-[N-((S)-1-carboxypropyl)carbamoyl]-4-hydroxybenzyl}carbamoylmethoxy)-2,3,4,5-tetrahydro-1,2,5-benzothiadiazepine], the “fat-soluble vitamin deficiencies refractory to clinically recommended vitamin supplementation” value ([1]; PEDFIC 2) was “no new or worsening fat-soluble vitamin deficiencies”, the “Any TEAE, patients” value ([1]; PEDFIC 2, Cohort 2, n = 16) was 8 (50.0) n (%) and the “Drug-related TEAE by preferred term: Blood bilirubin increased” value ([1]; PEDFIC 2, Cohort 2, n = 16) was 3 (18.8) n (%). The “Drug-related TEAE by preferred term: Cough” value (“Drug-related TEAE … Cough” for short) ([1]; PEDFIC 2, Cohort 2, n = 16) was 0 n (%), the “Drug-related TEAE by preferred term: Diarrhea” value (“Drug-related TEAE … Diarrhea” below) ([1]; PEDFIC 2, Cohort 2, n = 16) was 0 n (%) and the “Drug-related TEAE by preferred term: INR increased” value (from here on “Drug-related TEAE … INR increased”) ([1]; PEDFIC 2, Cohort 2, n = 16) was 2 (12.5) n (%). For the same compound, the “Drug-related TEAE by preferred term: Pruritus” value (“Drug-related TEAE … Pruritus” below) ([1]; PEDFIC 2, Cohort 2, n = 16) was 0 n (%), the “Drug-related TEAE by preferred term: Pyrexia” value (from here on “Drug-related TEAE … Pyrexia”) ([1]; PEDFIC 2, Cohort 2, n = 16) was 2 (12.5) n (%) and the “Drug-related TEAE by preferred term: URTI” value (from here on “Drug-related TEAE … URTI”) ([1]; PEDFIC 2, Cohort 2, n = 16) was 0 n (%). The “Drug-related TEAEs, patients” value ([1]; PEDFIC 2, Cohort 2, n = 16) was 5 (31.3) n (%), the “Mild TEAE, patients” value ([1]; PEDFIC 2, Cohort 2, n = 16) was 2 (12.5) n (%) and the “Moderate TEAE, patients” value ([1]; PEDFIC 2, Cohort 2, n = 16) was 3 (18.8) n (%). For the same compound, the “Serious TEAEs, patients” value ([1]; PEDFIC 2, Cohort 2, n = 16) was 1 (6.3) n (%), the “Severe TEAE, patients” value ([1]; PEDFIC 2, Cohort 2, n = 16) was 3 (18.8) n (%) and the “TEAEs leading to discontinuation, patients” value (shortened to “TEAEs leading”) ([1]; PEDFIC 2, Cohort 2, n = 16) was 2 (12.5) n (%). The “Any TEAE, patients” value ([1]; PEDFIC 2, P1O, n = 34) was 28 (82.4) n (%), the “Drug-related TEAE by preferred term: Blood bilirubin increased” value ([1]; PEDFIC 2, P1O, n = 34) was 4 (11.8) n (%) and the “Drug-related TEAE … Cough” value ([1]; PEDFIC 2, P1O, n = 34) was 8 (23.5) n (%). The “Drug-related TEAE … Diarrhea” value ([1]; PEDFIC 2, P1O, n = 34) was 6 (17.6) n (%), the “Drug-related TEAE … INR increased” value ([1]; PEDFIC 2, P1O, n = 34) was 2 (5.9) n (%) and the “Drug-related TEAE … Pruritus” value ([1]; PEDFIC 2, P1O, n = 34) was 4 (11.8) n (%). The “Drug-related TEAE … Pyrexia” value ([1]; PEDFIC 2, P1O, n = 34) was 7 (20.6) n (%), the “Drug-related TEAE … URTI” value ([1]; PEDFIC 2, P1O, n = 34) was 9 (26.5) n (%) and the “Drug-related TEAEs, patients” value ([1]; PEDFIC 2, P1O, n = 34) was 10 (29.4) n (%). The “Mild TEAE, patients” value ([1]; PEDFIC 2, P1O, n = 34) was 17 (50.0) n (%), the “Moderate TEAE, patients” value ([1]; PEDFIC 2, P1O, n = 34) was 10 (29.4) n (%) and the “Serious TEAEs, patients” value ([1]; PEDFIC 2, P1O, n = 34) was 0 n (%). The “Severe TEAE, patients” value ([1]; PEDFIC 2, P1O, n = 34) was 1 (2.9) n (%), the “TEAEs leading” value ([1]; PEDFIC 2, P1O, n = 34) was 0 n (%) and the “Any TEAE, patients” value ([1]; PEDFIC 2, P1P, n = 19) was 14 (73.7) n (%). For the same compound, the “Drug-related TEAE by preferred term: Blood bilirubin increased” value ([1]; PEDFIC 2, P1P, n = 19) was 2 (10.5) n (%), the “Drug-related TEAE … Cough” value ([1]; PEDFIC 2, P1P, n = 19) was 2 (10.5) n (%) and the “Drug-related TEAE … Diarrhea” value ([1]; PEDFIC 2, P1P, n = 19) was 1 (5.3) n (%). The “Drug-related TEAE … INR increased” value ([1]; PEDFIC 2, P1P, n = 19) was 2 (10.5) n (%), the “Drug-related TEAE … Pruritus” value ([1]; PEDFIC 2, P1P, n = 19) was 2 (10.5) n (%) and the “Drug-related TEAE … Pyrexia” value ([1]; PEDFIC 2, P1P, n = 19) was 4 (21.1) n (%). The “Drug-related TEAE … URTI” value ([1]; PEDFIC 2, P1P, n = 19) was 5 (26.3) n (%), the “Drug-related TEAEs, patients” value ([1]; PEDFIC 2, P1P, n = 19) was 5 (26.3) n (%) and the “Mild TEAE, patients” value ([1]; PEDFIC 2, P1P, n = 19) was 6 (31.6) n (%). For the same compound, the “Moderate TEAE, patients” value ([1]; PEDFIC 2, P1P, n = 19) was 7 (36.8) n (%), the “Serious TEAEs, patients” value ([1]; PEDFIC 2, P1P, n = 19) was 3 (15.8) n (%) and the “Severe TEAE, patients” value ([1]; PEDFIC 2, P1P, n = 19) was 1 (5.3) n (%). The “TEAEs leading” value ([1]; PEDFIC 2, P1P, n = 19) was 1 (5.3) n (%), the “mean serum chemistry, hematology, urinalysis, international normalized ratio values” ([1]; PEDFIC 2, laboratory assessments) was “No clinically significant changes or safety signals” and the “patients reporting mild/moderate TEAEs” value ([1]; PEDFIC 2, of 50 patients overall with any TEAE) was 45 patients. For the same compound, the “rate of discontinuations due to TEAEs” value ([1]; PEDFIC 2 overall) was < 30, the “patients overall with any TEAE” value ([1]; PEDFIC 2 overall (69 patients)) was 50 patients and the incidence of diarrhea ([1]; PEDFIC 2 overall, 7 patients, through week 24) was 10.1%. The “deaths or drug-related serious TEAEs” value ([1]; PEDFIC 2 through week 24) was “no deaths or drug-related serious TEAEs occurred”, the tolerability ([1]; PEDFIC 2 through week 24, 120 μg/kg/day) was “generally well tolerated” and the “PedsQL total score, mean change from baseline to week 24” value ([2]; placebo 0.5) was 7.8. For the same compound, the “PedsQL Family Impact Module Family relationships, mean change from baseline to week 24” value ([2]; placebo 2.1) was 10.9 and the “PedsQL Family Impact Module Cognitive, mean change from baseline to week 24” value ([2]; placebo 3.2) was 16.4.
